Source: patent publication US20250312341A1, “METHODS FOR TREATING PATIENTS WITH LOCALLY ADVANCED AND/OR METASTATIC SOLID TUMORS USING A DGK ZETA INHIBITOR” (ASTELLAS PHARMA INC., priority 2022, published 2025)

Legend:
[1] = 4-week repeated dose toxicity study in rats; format: in vivo
Protocol: (§1) Compound I has been tested in numerous preclinical studies. Data from the 4-week repeated dose toxicity study in rats and 4-week repeated dose toxicity study in cynomolgus monkeys determined STD10 in rats to be 30 mg/kg/day and the HNSTD in cynomolgus monkeys to be 3 mg/kg/day. Human equivalent doses based on body surface area conversion (conversion factors: 0.16 for rat, 0.32 for monkey) of the STD10 in rats and the HNSTD in cynomolgus monkeys are 4.8 mg/kg and 0.96 mg/kg, respectively. For a person of 60 kg body weight, one tenth of the rat STD10 is 28.8 mg (4.8 mg/kg× 1/10×60 kg) and one sixth of the HNSTD is 9.6 mg (0.96 mg/kg×⅙×60 kg). Cynomolgus monkey is the more sensitive species. Therefore, based on cynomolgus monkey HNSTD, the starting dose in human is judged to be 9.6 mg/participant once daily (QD) given orally (actual starting dose will be 10 mg based on 10 mg tablet strength).

[2] = 4-week repeated dose toxicity study in cynomolgus monkeys; format: in vivo
Protocol: as §1

DGKζ = DGKζ (Homo sapiens, UniProt Q13574); experiment: Nonclinical pharmacology: inhibition of DGKζ activity; format: biochemical; settings: nonclinical pharmacology studies
T cell = experiment: Nonclinical pharmacology: DAG downstream pathway and T cell activation upon TCR stimulation; format: cell-based
[3] = test system: syngeneic mouse models (inflamed tumor and TIL-poor tumor models); experiment: Antitumor efficacy in syngeneic mouse tumor models; format: in vivo
[4] = test system: peripheral blood mononuclear cells (PBMCs); experiment: Preclinical in vitro CD69 expression by PBMCs after TCR mediated stimulation; format: cell-based; settings: after the TCR mediated stimulation
From the text: The whole blood samples will be collected from the treated patients to evaluate pharmacodynamics effects of the Compound I. The preclinical in vitro studies have identified CD69 expression by peripheral blood mononuclear cells (PBMCs) as the best pharmacodynamic biomarker candidate. The CD69 is early activation biomarker expressed by many immune cells including T-cells. […] To evaluate the pharmacodynamics effect of Compound I, the PBMCs will be isolated and stimulated in vitro by CD3/CD28; the expression of the CD69 will be measured by flow cytometry.

[5] = Nonclinical safety assessments; format: in vivo

Sequence of DGKζ (Q13574 whole entry, species assumed): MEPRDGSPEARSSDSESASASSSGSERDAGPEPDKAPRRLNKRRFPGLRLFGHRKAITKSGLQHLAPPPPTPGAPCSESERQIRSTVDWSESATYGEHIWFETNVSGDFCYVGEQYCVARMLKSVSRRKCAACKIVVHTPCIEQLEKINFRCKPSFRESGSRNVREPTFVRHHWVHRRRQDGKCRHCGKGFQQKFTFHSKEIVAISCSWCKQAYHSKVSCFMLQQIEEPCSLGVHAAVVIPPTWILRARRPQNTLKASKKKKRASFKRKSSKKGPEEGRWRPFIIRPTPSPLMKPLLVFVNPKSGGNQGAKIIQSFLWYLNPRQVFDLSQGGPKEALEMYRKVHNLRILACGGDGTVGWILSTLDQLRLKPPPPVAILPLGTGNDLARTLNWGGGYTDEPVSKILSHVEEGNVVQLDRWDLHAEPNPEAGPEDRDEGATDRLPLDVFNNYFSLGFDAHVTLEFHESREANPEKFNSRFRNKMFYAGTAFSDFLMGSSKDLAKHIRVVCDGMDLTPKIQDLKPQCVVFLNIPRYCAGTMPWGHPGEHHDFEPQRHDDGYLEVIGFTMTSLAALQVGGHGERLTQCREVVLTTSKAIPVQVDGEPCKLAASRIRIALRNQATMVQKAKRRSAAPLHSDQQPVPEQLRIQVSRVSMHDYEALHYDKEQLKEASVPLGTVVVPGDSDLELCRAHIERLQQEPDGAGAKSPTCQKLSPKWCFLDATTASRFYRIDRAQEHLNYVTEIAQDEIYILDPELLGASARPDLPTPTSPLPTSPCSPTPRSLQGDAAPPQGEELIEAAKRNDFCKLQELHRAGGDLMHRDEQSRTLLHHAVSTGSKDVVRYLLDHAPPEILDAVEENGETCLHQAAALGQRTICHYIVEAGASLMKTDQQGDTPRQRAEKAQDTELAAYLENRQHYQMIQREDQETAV

## CNC[C@H]1CN(c2c(NC(=O)c3ccn(-c4ccnnc4)n3)ccc(Oc3ccccc3F)c2C(F)(F)F)CCN1C [Compound I, N-[4-(2-Fluorophenoxy)-2-{(3S)-4-methyl-3-[(methylamino)methyl]piperazin-1-yl}-3-(trifluoromethyl)phenyl]-1-(pyridazin-4-yl)-1H-pyrazole-3-carboxamide]
[1]; body surface area conversion, factor 0.16 for rat
  Human equivalent dose of the STD10 in rats: 4.8 mg/kg
[1]; rats, 4-week repeated dose
  STD10: 30 mg/kg/day
[2]; body surface area conversion, factor 0.32 for monkey
  Human equivalent dose of the HNSTD in cynomolgus monkeys: 0.96 mg/kg
[2]; cynomolgus monkeys, 4-week repeated dose
  HNSTD: 3 mg/kg/day
DGKζ
  DGKζ activity: inhibits DGKζ activity
T cell
  activation of DAG downstream pathways and T cell activation: enhances activation of DAG downstream pathways as well as T cell activation
[3]; anti-PD-1 poor-responsive syngeneic mouse models as well as responsive models
  Anti-tumor efficacy: demonstrated
[3]; oral administration, inflamed tumor and TIL-poor tumor models
  antitumor efficacy: demonstrated antitumor efficacy
[4]
  expression of CD69: induces increased expression of CD69
[5]
  nonclinical safety findings: risk of effect on body weight, gastrointestinal tract, electrocardiogram (ECG) parameters, hemodynamic and body temperature, lymphohematopoietic system and reproductive toxicity
